Experiment [1] concerns the target T1, oligomerization-deficient mutant of a LANA C-terminal protein fragment (aa 1008–1146) (Human herpesvirus 8 (Kaposi's sarcoma-associated herpesvirus), UniProt Q76SB0).
T1 sequence (Q76SB0 1008-1146): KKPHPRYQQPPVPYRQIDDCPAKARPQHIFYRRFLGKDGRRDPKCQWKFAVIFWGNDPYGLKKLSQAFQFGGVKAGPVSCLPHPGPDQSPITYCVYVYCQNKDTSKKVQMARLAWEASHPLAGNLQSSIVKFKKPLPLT
Nature of the experiment: Microscale thermophoresis (MST) binding assay. More on the design: species or system Kaposi's sarcoma-associated herpesvirus (KSHV). Conditions: read-out: KD value (MST); LANA aa 1008–1146 mutant; means of at least three replicates. From the text:
(§1) In these assays, an oligomerization-deficient mutant of a LANA C-terminal protein fragment (aa 1008–1146) and an oligonucleotide representing LANA-binding site (LBS) 1 were used, which are convenient to use and handle for the described biophysical methods, while maintaining the essential DNA-binding interface.[25]
Equation y = A2 + (A1-A2)/(1 + (x/x0)^p)
1.3 Microscale Thermophoresis (MST) Assay
Microscale Thermophoresis Assay was done as mentioned in a previous publication. 2
In general terms: In MST a laser heats a spot of the sample, and binding alters the fluorescence response.

Experiment [2] has as its target LANA–DNA interaction (oligomerization-deficient LANA DBD aa 1008–1146 mutant / LBS1) (Human herpesvirus 8 (Kaposi's sarcoma-associated herpesvirus), UniProt Q76SB0). Nature of the experiment: Electrophoretic mobility shift assay (EMSA), LANA DBD mutant with LBS1 oligonucleotide. The experiment is classed as biochemical, Kaposi's sarcoma-associated herpesvirus (KSHV). Conditions: compound at 250 μM; LBS1 oligonucleotide; LANA aa 1008–1146 mutant. On the procedure:
as §1
Equation y = A2 + (A1-A2)/(1 + (x/x0)^p) […]
1.4 Electrophoretic Mobility Shift Assay (EMSA)
The EMSA was carried out with slight modific ations as described previously 2 based on the assay in Hellert et al. (2013). 3 His-tagged oligomerization-deficient LANA DBD (aa1008-1146) mutant protein or LANA DBD (aa934-1162) wild type protein (200 nM final) was incubated with a 5´-Dy682-labeled double stranded DNA probe (IBA Lifesciences) (20 nM final) for 30 minutes at RT in the dark. The reaction buffer consisted of 30 mM Tris HCl pH 7.5, 50 mM KCl, 10 mM MgCl2, 1 mM DTT, 1 mM EDTA, 10% glycerol, 0.25% Tween20, 0.5 mg/mL BSA and 0.05 mg/mL poly(dI-dC). […]
dark. 10 µL of the reaction was run on a pre -run native 5% acrylamide gel for 45 minutes at 100V with tris-borate-EDTA buffer. Images of the gels were acquired and analysed with the Odyssey (Licor) using the Image Studio software.
Fig S2: Gels of EMSA experiments at 250 μM for all compounds (A) and dose-dependent curves for compound 20 using LANA DBD mutant (B) and LANA wildtype (C) as well as LBS1. Values are means […]
Gleichung y = A2 + (A1-A2)/(1 + (x/x0)^p) […]
Background: Mobility shift assays separate free from complexed probe on a gel.

For orientation: Kd means the concentration at which binding is half-saturated. `Cc1cc(-c2cccc(C(=O)O)c2)ncc1-n1cc(-c2ccc(C(=O)O)cc2)nn1` [Compound 26]: in experiment [1], the equilibrium dissociation constant (Kd) amounted to 12.1 ± 3.7 µM. In addition, the “Inhibition (EMSA, LBS1) @250 μM” value in experiment [2] is “n.i. (n.i. = no inhibition for inhibition <10%)”.

For the compound `Cc1cc(-c2cccc(Cl)c2)ncc1-n1cc(-c2ccc(C(=O)O)cc2)nn1` [Compound 15], in experiment [1], the Kd was determined as 22.1 ± 4.8 µM. The “Inhibition (EMSA, LBS1) @250 μM” value in experiment [2] was “n.i. (n.i. = no inhibition for inhibition <10%)”.

With `COc1ccc(COc2ccc(-c3cc(C)c(-n4cc(-c5ccc(C(=O)O)cc5)nn4)cn3)cc2)cc1` [Compound 36], in experiment [1], the dissociation constant (Kd) came to 26 ± 3.8 µM.

Consider `Cc1cc(-c2ccc(O)nc2)ncc1-n1cc(-c2ccc(C(=O)O)cc2)nn1` [Compound 8], for which the Kd in experiment [1] was 13.8 ± 2.7 µM. The “Inhibition (EMSA, LBS1) @250 μM” value in experiment [2] was found to be 42%.

On to `Cc1cc(-c2ccncc2)ncc1-n1cc(-c2ccc(C(=O)O)cc2)nn1` [Compound 5], for which, in experiment [1], the dissociation constant Kd was found to be 57.5 ± 6.8 µM.

Turning to `COc1cc(COc2cccc(-c3cc(C)c(-n4cc(-c5ccc(C(=O)O)cc5)nn4)cn3)c2)cc(OC)c1` [Compound 33], the Kd in experiment [1] was found to be 96.7 ± 9 µM.

Regarding `Cc1cc(-c2cncnc2)ncc1-n1cc(-c2ccc(C(=O)O)cc2)nn1` [Compound 6], the Kd in experiment [1] is 13.3 ± 2.5 µM. The “Inhibition (EMSA, LBS1) @250 μM” value in experiment [2] is reported as 74%.

Consider `CNC(=O)c1cccc(-c2cc(C)c(-n3cc(-c4ccc(C(=O)O)cc4)nn3)cn2)c1` [Compound 24], for which the Kd in experiment [1] was determined as 4.3 ± 0.9 µM. Besides, the “Inhibition (EMSA, LBS1) @250 μM” value in experiment [2] was 40%.

In the case of `Cc1cc(-c2cccc(OCc3ccccc3)c2)ncc1-n1cc(-c2ccc(C(=O)O)cc2)nn1` [Compound 29], in experiment [1], the Kd was found to be 84.8 ± 5.6 µM.

With `Cc1cc(-c2cccc(O)c2)ncc1-n1cc(-c2ccc(C(=O)O)cc2)nn1` [Compound 22], in experiment [1], the dissociation constant (Kd) is 26.4 ± 3.4 µM.

As to `Cc1cc(-c2cncc(O)c2)ncc1-n1cc(-c2ccc(C(=O)O)cc2)nn1` [Compound 7], the Kd in experiment [1] is 48.3 ± 11.8 µM.

Turning to `COc1cccc(COc2cccc(-c3cc(C)c(-n4cc(-c5ccc(C(=O)O)cc5)nn4)cn3)c2)c1` [Compound 32], the dissociation constant (Kd) in experiment [1] is 31.3 ± 3 µM.

On to `COc1ccc(COc2ccccc2-c2cc(C)c(-n3cc(-c4ccc(C(=O)O)cc4)nn3)cn2)cc1` [Compound 35], for which the Kd in experiment [1] amounted to 46.1 ± 5.8 µM.

On to `CNC(=O)c1ccc(-c2cc(C)c(-n3cc(-c4ccc(C(=O)O)cc4)nn3)cn2)cc1` [Compound 25], for which the dissociation constant (Kd) in experiment [1] was determined as 30.9 ± 3.1 µM.

For the compound `Cc1cc(-c2cccc(OCc3ccccc3Cl)c2)ncc1-n1cc(-c2ccc(C(=O)O)cc2)nn1` [Compound 30], the equilibrium dissociation constant (Kd) in experiment [1] was 159 ± 74 µM.

With `Cc1cc(-c2cnc3ccccc3c2)ncc1-n1cc(-c2ccc(C(=O)O)cc2)nn1` [Compound 12], in experiment [1], the dissociation constant (Kd) came to 31 ± 2.5 µM.

In the case of `COc1ccccc1-c1cc(C)c(-n2cc(-c3ccc(C(=O)O)cc3)nn2)cn1` [Compound 17], in experiment [1], the Kd was found to be 18 ± 2.7 µM. Besides, in experiment [2], the “Inhibition (EMSA, LBS1) @250 μM” value is 38%.

For the compound `COc1ccc(COc2cccc(-c3cc(C)c(-n4cc(-c5ccc(C(=O)O)cc5)nn4)cn3)c2)cc1` [Compound 34], in experiment [1], the dissociation constant Kd is 5.3 ± 4 µM. Also, the “Inhibition (EMSA, LBS1) @250 μM” value in experiment [2] worked out at 31%.

Turning to `COc1ccccc1COc1cccc(-c2cc(C)c(-n3cc(-c4ccc(C(=O)O)cc4)nn3)cn2)c1` [Compound 31], the Kd in experiment [1] turned out to be 30.8 ± 15.9 µM.

`COc1cccc(-c2cc(C)c(-n3cc(-c4ccc(C(=O)O)cc4)nn3)cn2)c1` [Compound 18]: the dissociation constant (Kd) in experiment [1] worked out at 9.6 ± 2.8 µM. In experiment [2], the “Inhibition (EMSA, LBS1) @250 μM” value is recorded as “n.i. (n.i. = no inhibition for inhibition <10%)”.

On to `Cc1cc(-c2cccc(Oc3ccccc3)c2)ncc1-n1cc(-c2ccc(C(=O)O)cc2)nn1` [Compound 28], for which the Kd in experiment [1] stood at 71.1 ± 9.3 µM.

Regarding `Cc1cc(-c2ccc(Cl)cc2)ncc1-n1cc(-c2ccc(C(=O)O)cc2)nn1` [Compound 16], the dissociation constant Kd in experiment [1] came out at 37.7 ± 59.3 µM.

Take `COc1ccc(-c2cc(C)c(-n3cc(-c4ccc(C(=O)O)cc4)nn3)cn2)cn1` [Compound 10]: in experiment [1], the equilibrium dissociation constant (Kd) came out at 9.2 ± 2.1 µM. Besides, in experiment [2], the “Inhibition (EMSA, LBS1) @250 μM” value is on record as “n.i. (n.i. = no inhibition for inhibition <10%)”.

`Cc1cc(-c2cccnc2)ncc1-n1cc(-c2ccc(C(=O)O)cc2)nn1` [Compound 4]: the Kd in experiment [1] was 81.3 ± 10.5 µM.

Consider `Cc1cc(-c2ccccc2)ncc1-n1cc(-c2ccc(C(=O)O)cc2)nn1` [Compound 13], for which, in experiment [1], the dissociation constant (Kd) was found to be 7.6 ± 2 µM. In addition, the “Inhibition (EMSA, LBS1) @250 μM” value in experiment [2] is “n.i. (n.i. = no inhibition for inhibition <10%)”.

As for `Cc1cc(-c2ccc(O)cc2)ncc1-n1cc(-c2ccc(C(=O)O)cc2)nn1` [Compound 23], in experiment [1], the Kd turned out to be 30.9 ± 3 µM.

The record behind these values is article PMC10424179, “Disrupting Kaposi’s Sarcoma-Associated Herpesvirus (KSHV) Latent Replication with a Small Molecule Inhibitor” (Journal of Medicinal Chemistry, 2023).
